Legend:
[1] = test system: C2C12 murine skeletal muscle myoblasts; assay: diameter of C2C12 myotubes (anti-desmin labelling); type: cell-based; details: for mean diameter size of myotubes: C2C12 myotubes, urolithin B 15 μM 24 h, TNF-alpha 10 ng/mL 4 h, leucine 5 mM
Experimental: The inventors selected C2C12 murine skeletal muscle myoblasts for measuring the effect of polyphenols on muscle metabolism, especially when submitted to inflammatory stress (e.g. upon TNF-alpha exposure). In these conditions, anabolism is blocked.
C2C12 myoblasts were differentiated for 4 days using 1% horse serum and 1% penicillin/streptomycin. The cells were thereafter grown for 24 h either with the same differentiation medium or with the differentiation medium supplemented with 15 μM urolithin B (conditions 5-8 of FIGS. 2-4 and of Table 1). Then the cells were grown either with the same differentiation medium or in the differentiation medium supplemented with 10 ng/mL TNF-alpha for 4 h (conditions 3-4 and 7-8 of FIGS. 2-4 and of Table 1). Thereafter, the cells were grown either with the same differentiation medium or in the differentiation medium supplemented with 5 mM leucine (conditions 2, 4, 6 and 8 of FIGS. 2-4 and of Table 1). The myotubes were labelled using anti-desmin antibodies, and nuclei labelling by Hoechst staining. Urolithin B consistently stimulates the diameter of myotubes.

C2C12 myoblasts = assay: toxicity of urolithin B addition; type: cell-based, murine; details: concentrations of up to 40 μM
Experimental: The inventors have firstly measured if the addition of urolithin B presents some toxicity, but no toxicity was measured for concentrations of up to 40 μM.

mTOR = mTOR phosphorylation; type: cell-based
Excerpt: The inventors then have measured mTOR phosphorylation again to reflect protein synthesis and have observed a marginal leucine-induced phosphorylation and a strong urolithin B-induced phosphorylation.

Akt = Akt phosphorylation; type: cell-based
Excerpt: (§1) The inventors then have measured Akt and PRAS40 phosphorylation still to analyse possible metabolism pathways. However, besides a tendency of synergy between the leucine and urolithin B addition, no major difference in phosphorylation patterns were observed.

PRAS40 = PRAS40 phosphorylation; type: cell-based
Excerpt: as §1

AMPK = AMPK phosphorylation; type: cell-based
androgen receptor = androgen receptor agonism (concluded from bicalutamide blockade); type: cell-based
Excerpt: Finally, the inventors have measured the effect of rapamycin, on another mTOR inhibitor and of the anti-androgen bicalutamide (FIGS. 5-6 show the effect on the size of the muscular fibres) on the urolithin B-induced effects (including on the phosphorylation on mTOR, of AMPK, . . . ) and conclude that urolithin B acts upon binding and activating the androgen receptor, then by releasing the AMPK-inhibition on mTOR, increases protein synthesis in muscle cells, then the diameter of muscle fibres.

denervated muscle = assay: weight loss of denervated muscle, intravenous; type: in vivo; details: mammal
[2] = compared with urolithins A, C and D and whole polyphenol extract; cited from earlier work
[3] = human patients fed with pomegranate extract; compared with urolithin A; cited from earlier work
[4] = test system: breast and on prostate cancer cell lines; details: cited from earlier work
P70S6k = P70S6k phosphorylation; type: cell-based

For O=c1oc2cc(O)ccc2c2ccccc12 [urolithin B], the “mean diameter size of myotubes” value [1] was 32.6, the size of myotubes ([1]; urolithin B at 15 μM) was “significantly increased” and the toxicity (C2C12 myoblasts) was “no toxicity”. For the same molecule, the mTOR phosphorylation (mTOR) was “strong”, the Akt phosphorylation (Akt) was “does not induce” and the PRAS40 phosphorylation (PRAS40) was “does not induce”. For the same molecule, the AMPK phosphorylation (AMPK) was “strong reduction”, the androgen-receptor agonist (androgen receptor) was “agonist” and the “weight loss of denervated muscle” value (denervated muscle) was “prevents”. For the same molecule, the “antioxidant and anti-inflammatory properties” value [2] was “much weaker”, the “amount in the blood” value [3] was “much lower” and the anti cancer activity [4] was “direct anti cancer activity”.
In the case of TNFa, the “mean diameter size of myotubes” value [1] is reported as 16.7.
In the case of O=c1oc2cc(O)ccc2c2ccc(O)cc12 [urolithin A, reference compound], the size of myotubes ([1]; up to 10 μM urolithin A, vs control) is reported as “does not increase”, the “induction of P70S6k phosphorylation” value (P70S6k) is reported as “almost no induction” and the androgen-receptor agonist (androgen receptor) is reported as “not”. The anti cancer activity [4] was “direct anti cancer activity”.
In the case of CC(C)C[C@H](N)C(=O)O [Leucine, leucine], the “mean diameter size of myotubes” value [1] is reported as 25.5 and the mTOR phosphorylation (mTOR) is reported as “marginal”.
